Experiments:
[1] = test system: S. aureus; experiment: MIC, antimicrobial activity assay; format: cell-based, Staphylococcus aureus (ATCC 6538P); conditions: Staphylococcus aureus; Table 1 first screening; read-out: Minimal Inhibitory Concentration (MIC) S. aureus
[2] = test system: C. albicans; experiment: MIC, antifungal activity assay; format: cell-based, Candida albicans (DSM 10697); conditions: Candida albicans; Table 1 first screening; 35 °C, 24 h; read-out: Minimal Inhibitory Concentration (MIC) C. albicans
[3] = test system: E. coli; experiment: MIC, antimicrobial activity assay; format: cell-based, Escherichia coli (ATCC 8739); conditions: Escherichia coli; Table 1 first screening; read-out: Minimal Inhibitory Concentration (MIC) E. coli
[4] = test system: B. subtilis; experiment: MIC, antimicrobial activity assay; format: cell-based, Bacillus subtilis (ATCC 6633); conditions: Bacillus subtilis; Table 1 first screening; read-out: Minimal Inhibitory Concentration (MIC) B. subtilis
[5] = test system: HepG2 (human liver cells); experiment: Cytotoxic assay on human cells (resazurin); format: cell-based; conditions: HepG2, 48 h, read-out: Inhibitory Concentration 50 (IC50) on cell viability, HEPG2
Experimental: (§1) The toxicity of berberine and berberine’s derivatives on human cells was evaluated using resazurin assay as previously described. Human cells used were BEAS (ATCC CRL-9609), Caco2 (ATCC HTB-37) and HepG2 (ATCC HB-8065) corresponding respectively to human airway epithelial cells, intestinal epithelial cells and liver cells. Cells were cultured in Dulbecco’s modified essential medium (DMEM) supplemented with 10% fetal bovine serum (FBS), 1% L-glutamine and 1% antibiotics (Thermo Fisher Scientific, Illkirch-Graffenstaden, France). Cells were routinely grown on 25 cm^2 flasks and maintained in a 5% CO2 incubator at 37 °C. For toxicity assay, cells were detached using trypsin–EDTA solution (Thermo Fisher Scientific), counted using Mallasez counting chamber and seeded into 96-well cell culture plates (Greiner bio-One, Dominique Dutscher, Brumath, France) at approximately 10,000 cells per well. The cells were left to grow for 48–72 h at 37 °C in a 5% CO2 incubator until they reached confluence. Media from wells was then aspirated and cells were treated with 100 µL of culture media containing increasing concentrations of berberine or berberine’s derivatives obtained by serial dilution (from 0 to 50 µM, 1:2 dilution), DMSO (0.5% DMSO final concentration) was used as negative control. After 48 h incubation at 37 °C in a 5% CO2 incubator, cell viability was evaluated using resazurin based in vitro toxicity assay kit (Sigma-Aldrich) following manufacturer’s instructions. Briefly, cell wells were emptied, and cells were treated with 100 µL of resazurin diluted 1:10 in sterile PBS containing calcium and magnesium (PBS^++, pH 7.4). After 4 h incubation at 37 °C, fluorescence intensity (excitation wavelength of 530 nm/emission wavelength of 590 nm) was measured using Synergy Mx microplate reader (Biotek). The fluorescence values were normalized by the controls (DMSO treated cells) and expressed as percent viability. The IC50 values of berberine and berberine’s derivatives on cell viability (i.e., the concentration of derivative causing a reduction of 50% of the cell viability) were calculated using GraphPad® Prism 7 software (San Diego, CA, USA). t-Test and two ways ANOVA analyses were used to address the significant differences between mean values with significance set at p < 0.05.

[6] = test system: BEAS (human airway epithelial cells); experiment: Cytotoxic assay on human cells (resazurin); format: cell-based; conditions: Epithelial cell, 48 h, means +/−SD, read-out: Inhibitory Concentration 50 (IC50) on cell viability, BEAS
Experimental: as §1

[7] = test system: Caco2 (human intestinal epithelial cells); experiment: Cytotoxic assay on human cells (resazurin); format: cell-based; conditions: Homo sapiens, Caco-2, 48 h, read-out: Inhibitory Concentration 50 (IC50) on cell viability, Caco2
Experimental: as §1

[8] = test system: P. aeruginosa; experiment: MIC, antimicrobial activity assay; format: cell-based, Pseudomonas aeruginosa (ATCC 9027); conditions: Pseudomonas aeruginosa; Table 1 first screening; read-out: Minimal Inhibitory Concentration (MIC) P. aeruginosa
[9] = test system: M. smegmatis; experiment: microbe, parasite or virus in culture; format: cell-based, Mycobacterium smegmatis (mc2155, ATCC 700084); conditions: Mycolicibacterium smegmatis, 72 h, read-out: Minimal Inhibitory Concentration (MIC) M. smegmatis
[10] = test system: selected relevant microorganisms; experiment: Antimicrobial activity, overall statement (active/inactive); format: cell-based
[11] = test system: bacterial membrane integrity; experiment: Bacterial membrane permeabilization assay (propidium iodide), strain not specified; format: cell-based; conditions: data not shown
Experimental: Membrane permeabilization by berberine derivatives was evaluated using the cell-impermeable DNA/RNA probe propidium iodide as previously explained. Logarithmic growing bacterial suspensions were prepared from overnight bacterial suspension by 1 in 10 dilution. After 3 h incubation at 37 °C, 200 rpm, bacterial suspensions were centrifuged for 5 min at 3000 rpm. Cell pellets were then resuspended in sterile PBS at about 10^9 cells/mL. Propidium iodide (Sigma Aldrich) was then added to the suspension at a final concentration of 60 µM. 100 µL of this suspension were then transferred into 96-well black plates (Dominique Dutscher) and exposed to increasing concentrations of berberine’s derivative (from 0 to 100 µM, 1:2 dilution). […] All steps of the assay were performed in aerobic condition except for H. pylori which was done in microaerobic condition generated with GasPak unit (Sigma Aldrich). Bacteria were incubated at 37 °C and the kinetics of fluorescence variations (excitation at 530 nm and emission at 590 nm) were then recorded over time using a Synergy Mx microplate reader (Biotek). Cetyl trimethylammonium bromide (CTAB) at 300 µM was used as positive control giving 100% permeabilization. Results were expressed in % of permeabilization. All experiments were done in triplicate.

**Q.** With `COc1ccc2c(Cc3ccc(F)cc3)c3[n+](cc2c1OC)CCc1cc2c(cc1-3)OCO2` [Compound 6, 13-(4-Fluorobenzyl)Berberine] as the compound, how does the MIC [1] read?
**A.** The MIC was 12.5 to 25 µM.

**Q.** And the MIC [2]?
**A.** The MIC was over 100 µM.

**Q.** And the MIC [3]?
**A.** Its MIC is over 100 µM.

**Q.** What about the MIC [4] of the same compound?
**A.** Its MIC is 50 µM.

**Q.** What about the IC50 [5] of the same compound?
**A.** The IC50 was over 50 µM.

**Q.** And the IC50 [6]?
**A.** Its IC50 is over 50 µM.

**Q.** What about the IC50 [7] of the same compound?
**A.** The IC50 was 36.9 ± 4.3 µM.

**Q.** What about the melting point of the same compound?
**A.** The melting point was 238 °C.

**Q.** And the MIC [8]?
**A.** The MIC was over 100 µM.

**Q.** What about the MIC [9] of the same compound?
**A.** Its MIC is 25 µM.

**Q.** Which MIC [1] does the source give for `COc1cc(Cc2c3[n+](cc4c(OC)c(OC)ccc24)CCc2cc4c(cc2-3)OCO4)cc(OC)c1OC` [Compound 15, 13[(3,4,5-Trimethoxyphenyl)methyl]Berberine] here?
**A.** Its MIC is 100 µM.

**Q.** What about the MIC [2] of the same compound?
**A.** Its MIC is over 100 µM.

**Q.** What about the “antimicrobial activity (active/inactive)” value [10] of the same compound?
**A.** Its value is “No Activity”.

**Q.** What about the MIC [3] of the same compound?
**A.** Its MIC is over 100 µM.

**Q.** What about the MIC [4] of the same compound?
**A.** The MIC was over 100 µM.

**Q.** And the MIC [8]?
**A.** The MIC was over 100 µM.

**Q.** And the “membrane permeabilization (inactive derivatives)” value [11]?
**A.** The value was “low to no membrane permeabilization”.

**Q.** And the MIC [9]?
**A.** The MIC was 50 µM.

**Q.** For `COc1ccc2c(Cc3ccc(/C=C/C(=O)c4cc(NC(C)=O)ccc4O)cc3)c3[n+](cc2c1OC)CCc1cc2c(cc1-3)OCO2` [Compound 24, N-{3-[(2E)-3-{4-[(Berberin-13-yl)methyl]phenyl}prop-2-enoyl]-4-hydroxyphenyl}acetamide], which MIC [1] is on record?
**A.** Its MIC is 50 to 100 µM.

**Q.** And the MIC [2]?
**A.** Its MIC is over 100 µM.

**Q.** What about the “antimicrobial activity (active/inactive)” value [10] of the same compound?
**A.** Its value is “No Activity”.

**Q.** What about the MIC [3] of the same compound?
**A.** The MIC was over 100 µM.

**Q.** What about the MIC [4] of the same compound?
**A.** The MIC was 100 µM.

**Q.** What about the MIC [8] of the same compound?
**A.** Its MIC is over 100 µM.

**Q.** What about the “membrane permeabilization (inactive derivatives)” value [11] of the same compound?
**A.** Its value is “low to no membrane permeabilization”.

**Q.** And the MIC [9]?
**A.** The MIC was 25 µM.

Source: PMC7400437, “Synthesis and Evaluation of the Antibacterial Activities of 13-Substituted Berberine Derivatives” (Antibiotics, 2020)
